Here are results for 23 molecules from patent US9598424B2 (Takeda Pharmaceutical Company Limited, priority 2014, dated 2017).

For experiment [1], the target named is T1, TBK1 (Homo sapiens, UniProt Q9UHD2).
T1 construct: host or cells: RA1-ISRE beta-lactamase reporter cells
T1 sequence (Q9UHD2 1-729): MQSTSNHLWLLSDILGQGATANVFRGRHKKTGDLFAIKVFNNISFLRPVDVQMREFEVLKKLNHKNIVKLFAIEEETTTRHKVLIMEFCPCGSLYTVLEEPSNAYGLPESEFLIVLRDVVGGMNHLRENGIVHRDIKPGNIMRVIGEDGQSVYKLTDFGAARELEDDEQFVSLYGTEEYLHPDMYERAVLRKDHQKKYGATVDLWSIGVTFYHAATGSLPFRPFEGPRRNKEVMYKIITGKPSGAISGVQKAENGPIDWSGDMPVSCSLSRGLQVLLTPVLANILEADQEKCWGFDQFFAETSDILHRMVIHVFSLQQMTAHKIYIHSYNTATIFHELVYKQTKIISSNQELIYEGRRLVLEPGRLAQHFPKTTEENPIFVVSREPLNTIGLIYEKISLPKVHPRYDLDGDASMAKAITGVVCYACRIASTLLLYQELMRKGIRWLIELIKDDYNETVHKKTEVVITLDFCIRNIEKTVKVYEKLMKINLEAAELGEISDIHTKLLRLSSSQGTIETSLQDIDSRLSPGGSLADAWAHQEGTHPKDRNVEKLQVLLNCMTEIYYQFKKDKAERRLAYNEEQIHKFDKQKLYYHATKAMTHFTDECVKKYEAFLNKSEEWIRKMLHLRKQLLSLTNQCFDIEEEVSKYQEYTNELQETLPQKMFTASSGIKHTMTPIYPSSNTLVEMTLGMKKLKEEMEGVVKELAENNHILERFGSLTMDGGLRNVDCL
The experiment in a line: Inhibition of TBK1 in Cells (TLR3 driven ISRE β-lactamase reporter assay). The experiment is classed as cell-based. The settings on record: poly IC-LMW stimulation 16 hrs, -log(EC50), EC50 molar; for EC50: read-out: Inhibition of TBK1 in cells pEC50 (EC) (converted). On the procedure: TBK1 inhibition is determined using a TLR3 driven RA1-ISRE β-lacatamase reporter assay (Life Technologies). In the assay 50,000 cells/well are plated in black clear bottom 384 well plate. Each test compound is prepared in DMSO using 2.5-fold serial dilutions for 11 data points, which are then added to the media. Cells are stimulated with 0.15 mg/ml poly IC-LMW (Invivogen) for 16 hrs. Reporter activity is detected using the LiveBLAzer-FRET B/G CCF4-AM substrate (Life Technologies) and the plate is read using the Spectramax M5 instrument. Corresponding EC50 values are calculated by non-linear curve fitting of the compound concentrations and percent of inhibition to the standard EC50 equation and reported as pEC50, i.e., −log(EC50), where EC50 is the molar concentration.

Experiment [2] has as its target T2, Full length human TBK1 (Homo sapiens, UniProt Q9UHD2).
T2 construct: Full length human TBK1 with an N-terminal His-tag; His-tag (N); made in house; host or cells: Sf9 insect cells (baculovirus, pFastBac1)
T2 sequence (Q9UHD2 1-729): T1 sequence (Q9UHD2 1-729)
The experiment in a line: Inhibition of TBK1 Enzyme (Caliper microfluidic assay). The experiment is classed as biochemical. The settings on record: 25 μM ATP, 60 min at RT, -log(IC50), IC50 molar; for IC50: read-out: TBK1 Inhibition (pIC50) (converted). Put shortly: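 Enzyme: His-tagged full-length TBK1 expressed in Sf9. Reaction 60 min at RT in 20 mM Hepes pH 7.4, 10 mM MgCl2, 1 mM EDTA, 0.01% Brij-L23, 1 mM DTT, with 5FAM-peptide (added at 1 μM) and TBK1/ATP mix (added at 3 nM/25 μM), then EDTA-quenched. Conversion measured by microfluidic separation; 11-point 2.5-fold series fit to pIC50.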

Bounds are passed on as bounds.

As for `O=C(Nc1cn2cc(-c3cc(C(=O)N4CCC(F)C4)[nH]n3)ccc2n1)C1CC1` (stereo not shown) [Example 107, N-(6-(5-(3-fluoropyrrolidine-1-carbonyl)-1H-pyrazol-3-yl)imidazo[1,2-a]pyridin-2-yl)cyclopropanecarboxamide], the EC50 in experiment [1] is 2750 nM. In addition, the IC50 in experiment [2] was 63.1 nM.
Regarding `O=C(NCC(F)(F)F)c1nc(-c2cn3cc(NC(=O)C4CC4)nc3cn2)cs1` [Example 6, 4-(2-(cyclopropanecarboxamido)imidazo[1,2-a]pyrazin-6-yl)-N-(2,2,2-trifluoroethyl)thiazole-2-carboxamide], in experiment [1], the EC50 was 355 nM. Further, the IC50 in experiment [2] was 7.94 nM.
Consider `O=C(NCC(F)(F)F)c1cc(-c2cn3cc(NC(=O)C4CC4)nc3cn2)cs1` [Example 33, 4-(2-(cyclopropanecarboxamido)imidazo[1,2-a]pyrazin-6-yl)-N-(2,2,2-trifluoroethyl)thiophene-2-carboxamide], for which the EC50 in experiment [1] is 269 nM. Further, the IC50 in experiment [2] is 5.01 nM.
As for `CC(F)(F)CNC(=O)c1nc(-c2ccc3nc(NC(=O)C4CC4)cn3c2)c[nH]1` [Example 11, 4-{2-cyclopropaneamidoimidazo[1,2-a]pyridin-6-yl}-N-(2,2-difluoropropyl)-1H-imidazole-2-carboxamide], the EC50 in experiment [1] is 813 nM. In addition, the IC50 in experiment [2] is 63.1 nM.
In the case of `O=C(NC1CCOC1=O)c1nc(-c2ccc3nc(NC(=O)C4CC4)cn3c2)cs1` (stereo not shown) [Example 94, 4-(2-(cyclopropanecarboxamido)imidazo[1,2-a]pyridin-6-yl)-N-(2-oxotetrahydrofuran-3-yl)thiazole-2-carboxamide], the EC50 in experiment [1] is 5500 nM. For the same molecule, the IC50 in experiment [2] is 200 nM.
The like results for `O=C(N[C@H]1CCOC1)c1cc(-c2ccc3nc(NC(=O)C4CC4)cn3c2)cs1` [Example 72, (S)-4-(2-(cyclopropanecarboxamido)imidazo[1,2-a]pyridin-6-yl)-N-(tetrahydrofuran-3-yl)thiophene-2-carboxamide] were, in that order, 1200 nM and 12.6 nM.
The like results for `C[C@H](NC(=O)c1cc(-c2ccc3nc(NC(=O)C4CC4)cn3c2)cs1)C(F)(F)F` [Example 80, (S)-4-(2-(cyclopropanecarboxamido)imidazo[1,2-a]pyridin-6-yl)-N-(1,1,1-trifluoropropan-2-yl)thiophene-2-carboxamide] were, in that order, 1380 nM and 63.1 nM.
The like results for `O=C(NC1(C(F)(F)F)CC1)c1cc(-c2ccc3nc(NC(=O)C4CC4)cn3c2)cs1` [Example 118, 4-(2-(cyclopropanecarboxamido)imidazo[1,2-a]pyridin-6-yl)-N-(1-(trifluoromethyl)cyclopropyl)thiophene-2-carboxamide] were, in that order, 676 nM and 31.6 nM.
As for “(R)-4-(2-(cyclopropanecarboxamido)imidazo[1,2-a]pyrazin-6-yl)-N-(1,1,1-trifluoropropan-2-yl)thiazole-2-carboxamide [Example 7]”, in experiment [1], the “Inhibition of TBK1 in cells pEC50 (EC)” value was 6.41. For the same molecule, in experiment [2], the “TBK1 Inhibition (pIC50)” value amounted to 8.1.
Regarding `Cc1sc(C(=O)NCC(F)(F)F)cc1-c1cn2cc(NC(=O)C3CC3)nc2cn1` [Example 30, 4-(2-(cyclopropanecarboxamido)imidazo[1,2-a]pyrazin-6-yl)-5-methyl-N-(2,2,2-trifluoroethyl)thiophene-2-carboxamide], the EC50 in experiment [1] is 6460 nM. For the same molecule, the IC50 in experiment [2] is 25.1 nM.
For `O=C(NC1CCOC1)c1cc(-c2ccc3nc(NC(=O)C4CC4)cn3c2)cs1` (stereo not shown) [Example 70, 4-(2-(cyclopropanecarboxamido)imidazo[1,2-a]pyridin-6-yl)-N-(tetrahydrofuran-3-yl)thiophene-2-carboxamide] the same measures were 891 nM and 31.6 nM.
For `O=C(NCC(F)(F)F)c1cc(-c2ccc3nc(NC(=O)C4CC4)cn3c2)cs1` [Example 32, 4-(2-(cyclopropanecarboxamido)imidazo[1,2-a]pyridin-6-yl)-N-(2,2,2-trifluoroethyl)thiophene-2-carboxamide] the same measures were 120 nM and 5.01 nM.
Take `C[C@H](NC(=O)c1nc(-c2ccc3nc(NC(=O)C4CC4)cn3c2)c[nH]1)C(F)(F)F` [Example 10, 4-{2-cyclopropaneamidoimidazo[1,2-a]pyridin-6-yl}-N-[(2S)-1,1,1-trifluoropropan-2-yl]-1H-imidazole-2-carboxamide]: the EC50 in experiment [1] was > 50100 nM. The IC50 in experiment [2] was 316 nM.
Regarding `O=C(NCC(F)(F)F)c1ccn(-c2cn3cc(NC(=O)C4CC4)nc3cn2)n1` [Example 36, 1-(2-(cyclopropanecarboxamido)imidazo[1,2-a]pyrazin-6-yl)-N-(2,2,2-trifluoroethyl)-1H-pyrazole-3-carboxamide], the EC50 in experiment [1] was 245 nM. For the same molecule, the IC50 in experiment [2] was 10 nM.
The like results for `O=C(Nc1cn2cc(-c3csc(C(=O)N4CC(F)(F)C[C@H]4CO)n3)ccc2n1)C1CC1` [Example 96, (S)-N-(6-(2-(4,4-difluoro-2-(hydroxymethyl)pyrrolidine-1-carbonyl)thiazol-4-yl)imidazo[1,2-a]pyridin-2-yl)cyclopropanecarboxamide] were, in that order, 851 nM and 63.1 nM.
The like results for `O=C(Nc1cn2cc(-c3csc(C(=O)N4CCC(F)(F)C4)c3)ccc2n1)C1CC1` [Example 74, N-(6-(5-(3,3-difluoropyrrolidine-1-carbonyl)thiophen-3-yl)imidazo[1,2-a]pyridin-2-yl)cyclopropanecarboxamide] were, in that order, 1350 nM and 31.6 nM.
As to `C[C@@H](NC(=O)c1cc(-c2ccc3nc(NC(=O)C4CC4)cn3c2)cs1)C(F)(F)F` [Example 81, (R)-4-(2-(cyclopropanecarboxamido)imidazo[1,2-a]pyridin-6-yl)-N-(1,1,1-trifluoropropan-2-yl)thiophene-2-carboxamide], in experiment [1], the EC50 is 44.7 nM. Moreover, the IC50 in experiment [2] was 2.51 nM.
In the case of `C[C@@H](NC(=O)c1cn(-c2ccc3nc(NC(=O)C4CC4)cn3c2)cn1)C(F)(F)F` [Example 43], in experiment [1], the EC50 was 2340 nM. The IC50 in experiment [2] is 50.1 nM.
Regarding `O=C(NCC1CCOC1)c1cc(-c2ccc3nc(NC(=O)C4CC4)cn3c2)cs1` (stereo not shown) [Example 75, 4-(2-(cyclopropanecarboxamido)imidazo[1,2-a]pyridin-6-yl)-N-((tetrahydrofuran-3-yl)methyl)thiophene-2-carboxamide], the EC50 in experiment [1] is 1700 nM. For the same molecule, the IC50 in experiment [2] was 50.1 nM.
The like results for `O=C(NC1COC1)c1nc(-c2ccc3nc(NC(=O)C4CC4)cn3c2)cs1` [Example 122, 4-(2-(cyclopropanecarboxamido)imidazo[1,2-a]pyridin-6-yl)-N-(oxetan-3-yl)thiazole-2-carboxamide] were, in that order, 3720 nM and 126 nM.
As for `CN(CC(F)(F)F)C(=O)c1cc(-c2ccc3nc(NC(=O)C4CC4)cn3c2)cs1` [Example 28, 4-(2-(cyclopropanecarboxamido)imidazo[1,2-a]pyridin-6-yl)-N-methyl-N-(2,2,2-trifluoroethyl)thiophene-2-carboxamide], the EC50 in experiment [1] is 676 nM. Moreover, the IC50 in experiment [2] is 12.6 nM.
Consider `O=C(N[C@H]1CCCOC1)c1cc(-c2ccc3nc(NC(=O)C4CC4)cn3c2)cs1` [Example 68, (S)-4-(2-(cyclopropanecarboxamido)imidazo[1,2-a]pyridin-6-yl)-N-(tetrahydro-2H-pyran-3-yl)thiophene-2-carboxamide], for which the EC50 in experiment [1] is 1020 nM. In addition, the IC50 in experiment [2] is 10 nM.
For `O=C(Nc1cn2cc(-c3csc(C(=O)N(CCCO)CC(F)(F)F)c3)ccc2n1)C1CC1` [Example 119, 4-(2-(cyclopropanecarboxamido)imidazo[1,2-a]pyridin-6-yl)-N-(3-hydroxypropyl)-N-(2,2,2-trifluoroethyl)thiophene-2-carboxamide] the same measures were 331 nM and 10 nM.
